{"source": "paper PMC5290001", "about": "(Clinical cancer research : an official journal of the …, 2016)", "key": {"[1]": {"assay": "Phase 1 dose escalation: toxicity", "format": "in vivo, human"}, "[2]": {"test_system": "AML", "conditions": "cited from earlier work; for Response rate: temozolomide 200 mg/m^2/day x 7 days, adults ≥ 60 years"}, "[3]": {"assay": "Temozolomide plasma pharmacokinetics", "format": "in vivo, human"}, "[4]": {"assay": "Veliparib plasma pharmacokinetics", "format": "in vivo, human", "conditions": "for half-life: human, plasma, oral"}, "[5]": {"test_system": "Ser139-phospho-H2AX (γH2AX)", "assay": "H2AX phosphorylation in viable peripheral blood cells and CD34+ subset", "format": "in vivo, human"}, "[6]": {"conditions": "temozolomide 200 mg/m^2/day alone (day 3), veliparib dose 20–200 mg"}, "[7]": {"conditions": "veliparib 200 mg, administered alone"}, "[8]": {"conditions": "single dose of veliparib, 6 hours, relative to pretreatment, DL5/DL6"}}, "note": "Values joined by “and” are separate entries in the source; they are usually repeats but may differ in a detail not shown here. Equal values may be shown once. Read-outs that look alike come from different tables or passages of the source.", "data": [{"compound": "Cn1nnc2c(C(N)=O)ncn2c1=O", "note": "[Temozolomide, temozolomide]", "values": [{"measurement": "Temozolomide dose at the MTD / RP2D", "setting": "[1]; for 7 days, with veliparib 150 mg twice a day", "value": 200, "unit": "mg/m^2/day"}, {"measurement": "Overall response rate", "setting": "[2]; MGMT+ cases", "value": 6, "unit": "%"}, {"measurement": "Overall response rate", "setting": "[2]; MGMT− AMLs", "value": 60, "unit": "%"}, {"measurement": "Patients achieving a response", "setting": "[2]; newly diagnosed AML or high-risk MDS with low MGMT expression", "value": 53, "unit": "%"}, {"measurement": "Response rate", "setting": "[2]; newly diagnosed AML", "value": 22, "unit": "%"}, {"measurement": "Response rate", "setting": "[2]; relapsed/refractory AML", "value": 5, "unit": "%"}, {"measurement": "Cmax", "setting": "[3]; human, plasma, oral, Cmax, temozolomide 200 mg/m^2/day in combination with veliparib 20–200 mg (day 8)", "value": "12000 ± 3800", "unit": "ng/mL"}, {"measurement": "half-life", "setting": "[3]; human, plasma, oral, t1/2, temozolomide 200 mg/m^2/day in combination with veliparib 20–200 mg (day 8)", "value": "1.9 ± 0.4", "unit": "h"}, {"measurement": "Tmax", "setting": "[3]; human, plasma, oral, tmax (median), temozolomide 200 mg/m^2/day in combination with veliparib 20–200 mg (day 8)", "value": 1, "unit": "h"}, {"measurement": "Cl/F, Obs.", "setting": "[3]; [6]", "value": "9.2 ± 3.2", "unit": "L/h"}, {"measurement": "V/F, Obs.", "setting": "[3]; [6]", "value": "25 ± 9.1", "unit": "L"}, {"measurement": "V/F", "setting": "[3]; temozolomide 200 mg/m^2/day in combination with veliparib 20–200 mg (day 8)", "value": "28±10 (25) L"}]}, {"compound": "C[C@]1(c2nc3c(C(N)=O)cccc3[nH]2)CCCN1", "note": "[Veliparib, veliparib]", "values": [{"measurement": "half-life", "setting": "[4]; t1/2, veliparib 120 mg in combination with temozolomide 200 mg/m^2/day (day 8)", "value": "9.1 ± 8", "unit": "h"}, {"measurement": "half-life", "setting": "[4]; t1/2, veliparib 150 mg in combination with temozolomide 200 mg/m^2/day (day 8)", "value": "5.3 ± 1.7", "unit": "h"}, {"measurement": "half-life", "setting": "[4]; t1/2, veliparib 200 mg in combination with temozolomide 200 mg/m^2/day (day 8)", "value": "3.6 ± 2.8", "unit": "h"}, {"measurement": "V/F", "setting": "[4]; veliparib 20 mg alone (day 1), temozolomide dose 150 or 200 mg/m^2/day", "value": "285 ± 175", "unit": "L"}, {"measurement": "V/F", "setting": "[4]; veliparib 20 mg in combination with temozolomide 150 or 200 mg/m^2/day (day 8)", "value": "180±49 (3) L"}, {"measurement": "V/F", "setting": "[4]; veliparib 120 mg alone (day 1), temozolomide dose 200 mg/m^2/day", "value": "181±50 (10) L"}, {"measurement": "V/F", "setting": "[4]; veliparib 120 mg in combination with temozolomide 200 mg/m^2/day (day 8)", "value": "191±165 (8) L"}, {"measurement": "V/F", "setting": "[4]; veliparib 150 mg alone (day 1), temozolomide dose 200 mg/m^2/day", "value": "190±72 (16) L"}, {"measurement": "V/F", "setting": "[4]; veliparib 150 mg in combination with temozolomide 200 mg/m^2/day (day 8)", "value": "109±45 (10) L"}, {"measurement": "V/F", "setting": "[4]; veliparib 200 mg alone (day 1), temozolomide dose 200 mg/m^2/day", "value": "84±26 (4) L"}, {"measurement": "V/F", "setting": "[4]; veliparib 200 mg in combination with temozolomide 200 mg/m^2/day (day 8)", "value": "77±59 (3) L"}, {"measurement": "Increase in AUC at the highest administered dose", "setting": "[4]; [7]", "value": 1.4, "unit": "fold"}, {"measurement": "Increase in Cmax at the highest administered dose", "setting": "[4]; [7]", "value": 2.5, "unit": "fold"}, {"measurement": "Maximum tolerated dose (MTD) / RP2D of veliparib", "setting": "[1]; given with temozolomide 200 mg/m^2 daily for 7 days, veliparib for 9 days", "value": 150, "unit": "mg twice daily"}, {"measurement": "Increase in phospho-H2AX positive CD34+ cells", "setting": "[5]; 1 patient with HI, day 1", "value": 2.3, "unit": "fold"}, {"measurement": "Patients with increased H2AX phosphorylation in CD34+ subset", "setting": "[5]; [8]", "value": "8 of 12"}, {"measurement": "Patients with increased H2AX phosphorylation in PB cells", "setting": "[5]; [8]", "value": "4 of 12"}, {"measurement": "Increase in H2AX phosphorylation in PB cells", "setting": "[5]; two patients who achieved CR", "value": "≥ 2", "unit": "fold"}, {"measurement": "Increase in phospho-H2AX positive CD34+ cells", "setting": "[5]; two patients who achieved CR, day 1, 6 hours post- versus pre-treatment", "value": "2.3 fold and 1.3 fold"}]}]}
